According to patent publication US20070128217A1 (priority 2003, published 2007):

Tests used:
[1] = tested on: control sera (pooled serum of ten healthy LUMC hospital workers; commercial negative donor pooled serum from the Dutch bloodbank); format: binding, human; parameters: Binding of Control serum LUMC to linear peptides / Binding of Control serum Blood-bank to linear peptides / Binding of Control serum LUMC to looped peptides / Binding of Control Serum Blood-Bank to Looped peptides / Binding of Control serum LUMC to linear peptides of the protein M of SARS-CoV Urbani / Binding of Control serum Blood-bank to linear peptides of the protein M of SARS-CoV Urbani / Binding of Control serum LUMC to looped peptides of the protein M of SARS-CoV Urbani / Binding of Control Serum Blood-Bank to Looped peptides of the protein M of SARS-CoV Urbani: unit not given here
[2] = tested on: rabbit serum obtained by immunizing a rabbit with the SARS-CoV strain Frankfurt 1; format: binding; parameters: Binding of a rabbit serum to linear peptides / Binding of a rabbit serum to looped peptides / Rabbit serum linear peptides / Rabbit serum looped peptides / Binding of a rabbit serum to linear peptides of protein N of SARS-CoV Urbani (Rabbit serum linear peptides) / Binding of a rabbit serum to looped/cyclic peptides of protein N of SARS-CoV Urbani (Rabbit serum looped peptides): unit not given here
[3] = tested on: antibodies in sera from SARS patients (sera 1a, 1b, 2, 6, 37, 62, London, SARS-yellow, SARS-green); format: binding, human; parameters: Binding of serum 6 to linear peptides of protein X1 of SARS-CoV Urbani / Binding of serum 37 to linear peptides of protein X1 of SARS-CoV Urbani / Binding of serum 6 to looped/cyclic peptide (PEPSCAN-ELISA) / Binding of serum 37 to looped/cyclic peptide (PEPSCAN-ELISA) / Binding of serum 37 to looped/cyclic peptides of protein X1 of SARS-CoV Urbani / Binding of serum 6 to linear peptides of protein X2 / Binding of serum 37 to linear peptides of protein X2 / Binding of serum 37 to looped/cyclic peptides of protein X2 of SARS-CoV Urbani / Binding of serum 6 to linear peptides of protein M of SARS-CoV Urbani / Binding of serum 37 to linear peptides of protein M of SARS-CoV Urbani / Binding of serum 6 to looped/cyclic peptides of protein M of SARS-CoV Urbani / Binding of serum 37 to looped/cyclic peptides of protein M of SARS-CoV Urbani / Binding of serum 6 to linear peptides of protein X3 of SARS-CoV Urbani / Binding of serum 37 to linear peptides of protein X3 of SARS-CoV Urbani / Binding of serum 37 to looped/cyclic peptides of protein X3 of SARS-CoV Urbani / Binding of serum 6 to linear peptides of protein X4 of SARS-CoV Urbani / Binding of serum 37 to linear peptides of protein X4 of SARS-CoV Urbani / Binding of serum 37 to looped/cyclic peptides of protein X4 of SARS-CoV Urbani / Binding of serum 6 to linear peptides of protein X5 of SARS-CoV Urbani / Binding of serum 37 to linear peptides of protein X5 of SARS-CoV Urbani / Binding of serum 37 to looped/cyclic peptides of protein X5 of SARS-CoV Urbani / Binding of serum 6 to linear peptides of protein N of SARS-CoV Urbani / Binding of serum 37 to linear peptides of protein N of SARS-CoV Urbani / Binding of serum 6 to linear peptide (PEPSCAN-ELISA) / Binding of serum 1a to looped/cyclic peptides of protein N of SARS-CoV Urbani / Binding of serum 1b to looped/cyclic peptides of protein N of SARS-CoV Urbani / Binding of serum 2 to looped/cyclic peptides of protein N of SARS-CoV Urbani / Binding of serum 6 to looped/cyclic peptides of protein N of SARS-CoV Urbani / Binding of serum 37 to looped/cyclic peptides of protein N of SARS-CoV Urbani / Binding of serum 62 to looped/cyclic peptides of protein N of SARS-CoV Urbani / Binding of serum London to looped/cyclic peptides of protein N of SARS-CoV Urbani / Binding of serum SARS-green to looped/cyclic peptides of protein N of SARS-CoV Urbani: unit not given here

With CNLLLLFVTIYSHLL the “Binding of Control Serum Blood-Bank to Looped peptides” value [1] was 0.5, the “Binding of Control serum Blood-bank to linear peptides” value [1] was 0.4 and the “Binding of Control serum LUMC to linear peptides” value [1] was 0.4. The “Binding of Control serum LUMC to looped peptides” value [1] was 0.5, the “Binding of a rabbit serum to linear peptides” value [2] was 0.1 and the “Binding of a rabbit serum to looped peptides” value [2] was 0.6. For the same sequence, the “Binding of serum 1a to linear peptides of protein X1 of SARS-CoV Urbani” value [3] was 0.7, the “Binding of serum 1a to looped/cyclic peptide (PEPSCAN-ELISA)” value [3] was 0.5 and the “Binding of serum 1b to linear peptides of protein X1 of SARS-CoV Urbani” value [3] was 0.5. The “Binding of serum 1b to looped/cyclic peptide (PEPSCAN-ELISA)” value [3] was 0.4, the “Binding of serum 2 to linear peptides of protein X1 of SARS-CoV Urbani” value [3] was 0.5 and the “Binding of serum 2 to looped/cyclic peptide (PEPSCAN-ELISA)” value [3] was 0.4. The “Binding of serum 6 to linear peptides of protein X1 of SARS-CoV Urbani” value [3] was 0.4, the “Binding of serum 6 to looped/cyclic peptide (PEPSCAN-ELISA)” value [3] was 0.3 and the “Binding of serum 37 to linear peptides of protein X1 of SARS-CoV Urbani” value [3] was 0.6. For the same sequence, the “Binding of serum 37 to looped/cyclic peptide (PEPSCAN-ELISA)” value [3] was 0.5, the “Binding of serum 62 to linear peptides of protein X1 of SARS-CoV Urbani” value [3] was 0.4 and the “Binding of serum 62 to looped/cyclic peptide (PEPSCAN-ELISA)” value [3] was 0.5. For the same sequence, the “Binding of serum London to linear peptides of protein X1 of SARS-CoV Urbani” value [3] was 0.2, the “Binding of serum London to looped/cyclic peptide (PEPSCAN-ELISA)” value [3] was 0.2 and the “Binding of serum SARS-green to linear peptides of protein X1 of SARS-CoV Urbani” value [3] was 0.1. For the same sequence, the “Binding of serum SARS-green to looped/cyclic peptide (PEPSCAN-ELISA)” value [3] was 0.2, the “Binding of serum SARS-yellow to linear peptides of protein X1 of SARS-CoV Urbani” value [3] was 0.4 and the “Binding of serum SARS-yellow to looped/cyclic peptide (PEPSCAN-ELISA)” value [3] was 0.4.

For CTPNVTINCQDPAGG, the “Binding of Control Serum Blood-Bank to Looped peptides” value [1] was 0.4, the “Binding of Control serum Blood-bank to linear peptides” value [1] was 0.7 and the “Binding of Control serum LUMC to linear peptides” value [1] was 0.3. The “Binding of Control serum LUMC to looped peptides” value [1] was 0.4, the “Rabbit serum linear peptides” value [2] was 0.4 and the “Rabbit serum looped peptides” value [2] was 0.0. For the same sequence, the “Binding of serum 1a to linear peptides of protein X5 of SARS-CoV Urbani” value [3] was 1.0, the “Binding of serum 1a to looped/cyclic peptides of protein X5 of SARS-CoV Urbani” value [3] was 0.6 and the “Binding of serum 1b to linear peptides of protein X5 of SARS-CoV Urbani” value [3] was 0.8. For the same sequence, the “Binding of serum 1b to looped/cyclic peptides of protein X5 of SARS-CoV Urbani” value [3] was 0.8, the “Binding of serum 2 to linear peptides of protein X5 of SARS-CoV Urbani” value [3] was 0.6 and the “Binding of serum 2 to looped/cyclic peptides of protein X5 of SARS-CoV Urbani” value [3] was 0.3. The “Binding of serum 6 to linear peptides of protein X5 of SARS-CoV Urbani” value [3] was 0.6, the “Binding of serum 6 to looped/cyclic peptides of protein X5 of SARS-CoV Urbani” value [3] was 0.3 and the “Binding of serum 37 to linear peptides of protein X5 of SARS-CoV Urbani” value [3] was 0.7. For the same sequence, the “Binding of serum 37 to looped/cyclic peptides of protein X5 of SARS-CoV Urbani” value [3] was 0.4, the “Binding of serum 62 to linear peptides of protein X5 of SARS-CoV Urbani” value [3] was 0.7 and the “Binding of serum 62 to looped/cyclic peptides of protein X5 of SARS-CoV Urbani” value [3] was 0.3. The “Binding of serum London to linear peptides of protein X5 of SARS-CoV Urbani” value [3] was 0.8, the “Binding of serum London to looped/cyclic peptides of protein X5 of SARS-CoV Urbani” value [3] was 0.2 and the “Binding of serum SARS-green to linear peptides of protein X5 of SARS-CoV Urbani” value [3] was 0.5. The “Binding of serum SARS-green to looped/cyclic peptides of protein X5 of SARS-CoV Urbani” value [3] was 0.4, the “Binding of serum SARS-yellow to linear peptides of protein X5 of SARS-CoV Urbani” value [3] was 0.0 and the “Binding of serum SARS-yellow to looped/cyclic peptides of protein X5 of SARS-CoV Urbani” value [3] was 0.4.

For CTSTHFAFACADGTR, the “Binding of Control Serum Blood-Bank to Looped peptides” value [1] was 0.8, the “Binding of Control serum Blood-bank to linear peptides” value [1] was 0.7 and the “Binding of Control serum LUMC to linear peptides” value [1] was 0.8. The “Binding of Control serum LUMC to looped peptides” value [1] was 0.7, the “Rabbit serum linear peptides” value [2] was 0.4 and the “Rabbit serum looped peptides” value [2] was 0.6. For the same sequence, the “Binding of serum 1a to linear peptides of protein X4 of SARS-CoV Urbani” value [3] was 0.7, the “Binding of serum 1a to looped/cyclic peptides of protein X4 of SARS-CoV Urbani” value [3] was 0.7 and the “Binding of serum 1b to linear peptides of protein X4 of SARS-CoV Urbani” value [3] was 0.7. For the same sequence, the “Binding of serum 1b to looped/cyclic peptides of protein X4 of SARS-CoV Urbani” value [3] was 0.4, the “Binding of serum 2 to linear peptides of protein X4 of SARS-CoV Urbani” value [3] was 0.5 and the “Binding of serum 2 to looped/cyclic peptides of protein X4 of SARS-CoV Urbani” value [3] was 0.6. For the same sequence, the “Binding of serum 6 to linear peptides of protein X4 of SARS-CoV Urbani” value [3] was 0.6, the “Binding of serum 6 to looped/cyclic peptides of protein X4 of SARS-CoV Urbani” value [3] was 0.6 and the “Binding of serum 37 to linear peptides of protein X4 of SARS-CoV Urbani” value [3] was 0.7. The “Binding of serum 37 to looped/cyclic peptides of protein X4 of SARS-CoV Urbani” value [3] was 0.7, the “Binding of serum 62 to linear peptides of protein X4 of SARS-CoV Urbani” value [3] was 0.8 and the “Binding of serum 62 to looped/cyclic peptides of protein X4 of SARS-CoV Urbani” value [3] was 0.7. The “Binding of serum London to linear peptides of protein X4 of SARS-CoV Urbani” value [3] was 0.7, the “Binding of serum London to looped/cyclic peptides of protein X4 of SARS-CoV Urbani” value [3] was 0.3 and the “Binding of serum SARS-green to linear peptides of protein X4 of SARS-CoV Urbani” value [3] was 0.6. The “Binding of serum SARS-green to looped/cyclic peptides of protein X4 of SARS-CoV Urbani” value [3] was 0.4, the “Binding of serum SARS-yellow to linear peptides of protein X4 of SARS-CoV Urbani” value [3] was 0.4 and the “Binding of serum SARS-yellow to looped/cyclic peptides of protein X4 of SARS-CoV Urbani” value [3] was 1.0.
